Source: patent publication US20210147381A1, “1,2,3,4-SUBSTITUTED QUINOLINE COMPOUNDS AS SIP MODULATORS” (AbbVie Deutschland GmbH & Co. KG, priority 2017, published 2021)
Counter-ions that a name gives are not always drawn.

Experiments:
Type in all cases: cell-based
[1] = biological target: T1, human S1P5 receptor (S1PR5) (Homo sapiens, UniProt Q9H228); assay: Intracellular Ca2+ release (method 1), agonist potency and efficacy, S1P5; conditions: for Emax: maximum effect in % of reference agonist phospho-fingolimod (100%), read-out: hS1P5 EMax; for EC50: recombinant CHO-K1 cells expressing human S1PR5, aequorin, Gq/i5, Ca2+ release, read-out: S1P5 EC50 range
T1 construct: host or cells: CHO-K1
Experimental: (§1) Agonistic activity and efficacy of compounds was assessed in recombinant cells using method 1 described below.
(§2) Agonist potency and efficacy were assessed by measurement of intracellular Ca^2+ release. Recombinant CHO-K1 cells (Euroscreen, Brussels, Belgium) expressing human S1PR5, S1PR1, S1PR3 or S1PR4 receptors, aequorin, and GTP binding protein Gq/i5 were cultured using a medium containing nutrient mixture F-12 Ham (Sigma-Aldrich) with 10% FBS, and 100 μg/mL gentamicin and equilibrated at 5% CO2.
(§3) 15,000 cells in 20 μL medium were seeded into Biocoat poly-D-Lysine coated 384 well plates (Becton Dickinson #35-6663) and grown to 95% confluency after 24 h.
(§4) Culture medium was replaced by an assay buffer consisting of HBBS with Ca^2+ and Mg^2+ (Invitrogen #14025-050), 20 mmol/L Hepes (Sigma-Aldrich #H-3375), 2.5 mmol/L probenecid (Sigma-Aldrich #P-8761, and 0.1% BSA (Sigma-Aldrich #A-7030) pH 7.4. The Calcium 5 no-wash FLIPR assay kit (Molecular Devices #5000625) was performed as described in the kit instructions. Cells were incubated with Calcium 5 dye for 1 h at 37° C., 5% CO2 in the dark. After 45 min adaptation to RT assessment of agonist stimulation of intracellular Ca^2+ release was performed by addition of test compounds at various concentrations obtained by serial dilution. Phospho-fingolimod was used as positive control and reference agonist (intrinsic activity 100%).
(§5) Agonism of test compounds at the human S1Px receptors were characterized by the EC50 values (potencies) deduced from a nonlinear 4 parametric logistic curve fit to the measured fluorescence data after normalization to the lower and upper plateaus of the fitted reference agonist's (phospho-fingolimod)effect curve and by their efficacy (Emax) values represented by their maximum achievable effects in % of the reference agonist's efficacy, which is defined as an Emax of 100%.

[2] = biological target: T2, human S1P1 receptor (S1PR1) (Homo sapiens, UniProt P21453); assay: Intracellular Ca2+ release (method 1), agonist potency, S1P1; conditions: CHO-K1 cells expressing human S1PR1
T2 construct: host or cells: CHO-K1
Experimental: as §1, §2, §3, §4, §5

[3] = biological target: T3, human S1P3 receptor (S1PR3) (Homo sapiens, UniProt Q99500); assay: Intracellular Ca2+ release (method 1), agonist potency, S1P3; conditions: CHO-K1 cells expressing human S1PR3
T3 construct: host or cells: CHO-K1
Experimental: as §1, §2, §3, §4, §5

[4] = biological target: T4, human S1P4 receptor (S1PR4) (Homo sapiens, UniProt O95977); assay: Intracellular Ca2+ release (method 1), agonist potency, S1P4; conditions: CHO-K1 cells expressing human S1PR4
T4 construct: host or cells: CHO-K1
T4 sequence (O95977 1-384): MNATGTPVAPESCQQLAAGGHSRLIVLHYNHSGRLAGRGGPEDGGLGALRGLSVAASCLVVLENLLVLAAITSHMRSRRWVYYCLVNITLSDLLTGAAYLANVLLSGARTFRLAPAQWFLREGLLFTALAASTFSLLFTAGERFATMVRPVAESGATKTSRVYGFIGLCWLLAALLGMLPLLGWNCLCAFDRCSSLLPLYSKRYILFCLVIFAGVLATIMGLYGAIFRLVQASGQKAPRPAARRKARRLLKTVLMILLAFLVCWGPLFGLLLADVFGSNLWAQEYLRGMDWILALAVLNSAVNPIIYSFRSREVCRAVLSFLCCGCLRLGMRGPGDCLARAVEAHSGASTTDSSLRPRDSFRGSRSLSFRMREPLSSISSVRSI
Experimental: as §1, §2, §3, §4, §5

T2 sequence (P21453 whole entry): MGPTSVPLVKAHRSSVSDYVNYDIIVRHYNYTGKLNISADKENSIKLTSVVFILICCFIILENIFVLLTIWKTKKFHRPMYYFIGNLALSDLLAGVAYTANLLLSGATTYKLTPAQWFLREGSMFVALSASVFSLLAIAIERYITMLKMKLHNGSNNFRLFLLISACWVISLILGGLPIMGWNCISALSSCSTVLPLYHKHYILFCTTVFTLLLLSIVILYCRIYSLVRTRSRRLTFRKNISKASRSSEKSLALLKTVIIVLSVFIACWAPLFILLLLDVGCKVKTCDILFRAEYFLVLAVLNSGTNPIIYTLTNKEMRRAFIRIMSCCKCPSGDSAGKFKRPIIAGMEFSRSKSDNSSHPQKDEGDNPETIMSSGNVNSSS
T1 sequence (Q9H228 whole entry): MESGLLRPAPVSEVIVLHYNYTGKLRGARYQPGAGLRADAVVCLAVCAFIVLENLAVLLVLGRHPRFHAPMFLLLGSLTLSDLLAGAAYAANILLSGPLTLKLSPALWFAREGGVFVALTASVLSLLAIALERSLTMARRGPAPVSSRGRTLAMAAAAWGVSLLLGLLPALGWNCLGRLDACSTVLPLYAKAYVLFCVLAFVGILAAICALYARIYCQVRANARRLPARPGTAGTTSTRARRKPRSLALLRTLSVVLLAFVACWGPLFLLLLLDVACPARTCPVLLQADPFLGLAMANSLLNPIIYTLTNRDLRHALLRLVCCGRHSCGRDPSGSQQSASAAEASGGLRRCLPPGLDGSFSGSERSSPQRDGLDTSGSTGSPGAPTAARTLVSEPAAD
T3 sequence (Q99500 whole entry): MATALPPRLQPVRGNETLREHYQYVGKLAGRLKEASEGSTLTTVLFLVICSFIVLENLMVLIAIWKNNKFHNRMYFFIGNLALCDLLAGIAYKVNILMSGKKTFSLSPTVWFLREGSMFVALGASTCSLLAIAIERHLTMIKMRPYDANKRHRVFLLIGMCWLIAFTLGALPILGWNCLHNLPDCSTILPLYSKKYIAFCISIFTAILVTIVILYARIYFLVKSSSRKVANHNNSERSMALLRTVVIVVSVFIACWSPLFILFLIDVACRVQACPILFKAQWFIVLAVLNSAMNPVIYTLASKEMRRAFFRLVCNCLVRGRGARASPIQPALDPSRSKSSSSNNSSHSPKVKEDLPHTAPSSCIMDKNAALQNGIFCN

Row | Emax [1] [%] | EC50 [1] [nM] | EC50 ([2]; cells given as bound) [nM] | EC50 [3] [nM] | EC50 [4] [nM] | EC50 ([4]; cells given as bound) [nM] | EC50 [2] [nM] | Compound
1 | 50 to 100 | < 10 | > 1000 | > 1000 | 10 to 100 |  |  | O=C(O)CCN1Cc2ccc(C#Cc3c(Cl)cccc3Cl)cc2C2(CC2)C1 [Compound 11, 3-(6′-((2,6-dichlorophenyl)ethynyl)-1′H-spiro[cyclopropane-1,4′-isoquinolin]-2′(3′H)-yl)propanoic acid]
2 | 50 to 100 | < 10 | > 1000 | > 1000 | 100 to 1000 |  |  | CCc1cccc(Cl)c1COc1ccc2c(c1)C1(CC1)CN(CC(=O)O)C2 [Compound 13, 2-(6′-((2-Chloro-6-ethylbenzyl)oxy)-1′H-spiro[cyclopropane-1,4′-isoquinolin]-2′(3′H)-yl)acetic acid]
3 | 50 to 100 | < 10 | > 1000 | > 1000 | 100 to 1000 |  |  | O=C(O)CCCN1Cc2ccc(OCc3ccccc3OC(F)(F)F)cc2C2(CC2)C1 [Compound 14, 4-(6′-((2-(Trifluoromethoxy)benzyl)oxy)-1′H-spiro[cyclopropane-1,4′-isoquinolin]-2′(3′H)-yl)butanoic acid]
4 | > 100 | < 10 | > 1000 | > 1000 | 10 to 100 |  |  | O=C(O)CCCN1Cc2ccc(OCc3c(Cl)cccc3Cl)cc2C2(CC2)C1 [Compound 15, 4-(6′-((2,6-Dichlorobenzyl)oxy)-1′H-spiro[cyclopropane-1,4′-isoquinolin]-2′(3′H)-yl)butanoic acid]
5 | < 50 | 10 to 100 | > 1000 | > 1000 | 100 to 1000 |  |  | O=C(O)CCCN1Cc2ccc(OCc3ccc(F)c(F)c3)cc2C2(CC2)C1 [Compound 18, 4-(6′-((3,4-Difluorobenzyl)oxy)-1′H-spiro[cyclopropane-1,4′-isoquinolin]-2′(3′H)-yl)butanoic acid]
6 | 50 to 100 | < 10 | > 1000 | > 1000 |  | > 1000 |  | O=C(O)CCCN1Cc2ccc(OCc3ccccc3F)cc2C2(CC2)C1 [Compound 19, 4-(6′-((2-Fluorobenzyl)oxy)-1′H-spiro[cyclopropane-1,4′-isoquinolin]-2′(3′H)-yl)butanoic acid]
7 | < 50 | 10 to 100 | > 1000 | > 1000 | 100 to 1000 |  |  | O=C(O)CCCN1Cc2ccc(OCc3cccc(OC(F)(F)F)c3)cc2C2(CC2)C1 [Compound 20, 4-(6′-((3-(Trifluoromethoxy)benzyl)oxy)-1′H-spiro[cyclopropane-1,4′-isoquinolin]-2′(3′H)-yl)butanoic acid]
8 | < 50 | 10 to 100 | > 1000 | > 1000 | 100 to 1000 |  |  | O=C(O)CCCN1Cc2ccc(OCc3cccc(F)c3F)cc2C2(CC2)C1 [Compound 21, 4-(6′-((2,3-Difluorobenzyl)oxy)-1′H-spiro[cyclopropane-1,4′-isoquinolin]-2′(3′H)-yl)butanoic acid]
9 | 50 to 100 | < 10 | > 1000 | > 1000 | 100 to 1000 |  |  | Cc1ccccc1COc1ccc2c(c1)C1(CC1)CN(CCCC(=O)O)C2 [Compound 22, 4-(6′-((2-Methylbenzyl)oxy)-1′H-spiro[cyclopropane-1,4′-isoquinolin]-2′(3′H)-yl)butanoic acid]
10 | 50 to 100 | 10 to 100 | > 1000 | > 1000 |  | > 1000 |  | O=C(O)CCCN1Cc2ccc(OCc3cccc(F)c3)cc2C2(CC2)C1 [Compound 23, 4-(6′-((3-Fluorobenzyl)oxy)-1′H-spiro[cyclopropane-1,4′-isoquinolin]-2′(3′H)-yl)butanoic acid]
11 | 50 to 100 | < 10 | > 1000 | > 1000 | 100 to 1000 |  |  | O=C(O)CCCN1Cc2ccc(OCc3cccc(Cl)c3)cc2C2(CC2)C1 [Compound 24, 4-(6′-((3-Chlorobenzyl)oxy)-1′H-spiro[cyclopropane-1,4′-isoquinolin]-2′(3′H)-yl)butanoic acid]
12 | 50 to 100 | < 10 | > 1000 | > 1000 | 100 to 1000 |  |  | O=C(O)CCCN1Cc2ccc(OCc3ccccc3Cl)cc2C2(CC2)C1 [Compound 25, 4-(6′-((2-Chlorobenzyl)oxy)-1′H-spiro[cyclopropane-1,4′-isoquinolin]-2′(3′H)-yl)butanoic acid]
13 | 50 to 100 | 10 to 100 | > 1000 | > 1000 | 10 to 100 |  |  | O=C(O)CCCN1Cc2ccc(OCc3ccc(Cl)c(Cl)c3)cc2C2(CC2)C1 [Compound 26, 4-(6′-((3,4-Dichlorobenzyl)oxy)-1′H-spiro[cyclopropane-1,4′-isoquinolin]-2′(3′H)-yl)butanoic acid]
14 | > 100 | < 10 | > 1000 | > 1000 | < 10 |  |  | CCc1cccc(Cl)c1COc1ccc2c(c1)C1(CC1)CN(CCCC(=O)O)C2 [Compound 27, 4-(6′-((2-Chloro-6-ethylbenzyl)oxy)-1′H-spiro[cyclopropane-1,4′-isoquinolin]-2′(3′H)-yl)butanoic acid]
15 | 50 to 100 | 10 to 100 | > 1000 | > 1000 | 100 to 1000 |  |  | CCc1cccc(Cl)c1COc1ccc2c(c1)C1(CC1)CN(C(C)C(=O)O)C2 (stereo not shown) [Compound 28, 2-(6′-((2-Chloro-6-ethylbenzyl)oxy)-1′H-spiro[cyclopropane-1,4′-isoquinolin]-2′(3′H)-yl)propanoic acid]
16 | > 100 | < 10 |  | > 1000 |  | > 1000 | 100 to 1000 | CC(C)c1ccc(C#Cc2ccc3c(c2)C2(CC2)CN(CCC(=O)O)C3)cc1 [Compound 31, 3-(6′-((4-isopropylphenyl)ethynyl)-1′H-spiro[cyclopropane-1,4′-isoquinolin]-2′(3′H)-yl)propanoic acid acetic acid salt (1:1)]
17 | 50 to 100 | < 10 | > 1000 | > 1000 | 100 to 1000 |  |  | O=C(O)CCN1Cc2ccc(C#Cc3cc(F)cc(F)c3)cc2C2(CC2)C1 [Compound 32, 3-(6′-((3,5-difluorophenyl)ethynyl)-1′H-spiro[cyclopropane-1,4′-isoquinolin]-2′(3′H)-yl)propanoic acid acetic acid salt (1:1)]
18 | < 50 | < 10 | > 1000 | > 1000 | < 10 |  |  | O=C(O)CCN1Cc2ccc(C#Cc3cccc(Cl)c3)cc2C2(CC2)C1 [Compound 33, 3-(6′-((3-chlorophenyl)ethynyl)-1′H-spiro[cyclopropane-1,4′-isoquinolin]-2′(3′H)-yl)propanoic acid acetic acid salt (1:1)]
19 | 50 to 100 | < 10 | > 1000 | > 1000 |  | > 1000 |  | CCOc1ccc(C#Cc2ccc3c(c2)C2(CC2)CN(CCC(=O)O)C3)cc1 [Compound 34, 3-(6′-((4-ethoxyphenyl)ethynyl)-1′H-spiro[cyclopropane-1,4′-isoquinolin]-2′(3′H)-yl)propanoic acid acetic acid salt (1:1)]
20 | 50 to 100 | < 10 | > 1000 | > 1000 | 100 to 1000 |  |  | O=C(O)CCN1Cc2ccc(C#Cc3ccccc3Cl)cc2C2(CC2)C1 [Compound 35, 3-(6′-((2-chlorophenyl)ethynyl)-1′H-spiro[cyclopropane-1,4′-isoquinolin]-2′(3′H)-yl)propanoic acid]
